Assay results as given in ChEMBL document CHEMBL6083247, “Discovery of sulfone containing metallo-β-lactamase inhibitors with reduced bacterial cell efflux and histamine release issues” (Bioorg Med Chem Lett, 2024).

Experiments:
[1] = Volume of distribution at steady state in rat at 1 mg/kg, iv; format: ADME, organism-based; conditions: in vivo, read-out: Vdss
[2] = AUC in rat at 1 mg/kg, iv; format: ADME, organism-based; conditions: in vivo
[3] = Clearance in rat at 1 mg/kg, iv; format: ADME, organism-based; conditions: in vivo
[4] = Cmax in rat at 1 mg/kg, iv; format: ADME, organism-based; conditions: in vivo
[5] = MRT in rat at 1 mg/kg, iv; format: ADME, organism-based; conditions: in vivo
[6] = Unbound fraction in rat plasma at 1 mg/kg, iv; format: ADME, organism-based
[7] = AUC in rhesus monkey at 1 mg/kg, iv; format: ADME, organism-based, Macaca mulatta; conditions: in vivo
[8] = Clearance in rhesus monkey at 1 mg/kg, iv; format: ADME, organism-based, Macaca mulatta; conditions: in vivo
[9] = Volume of distribution at steady state in rhesus monkey at 1 mg/kg, iv; format: ADME, organism-based, Macaca mulatta; conditions: in vivo, read-out: Vdss
[10] = Cmax in rhesus monkey at 1 mg/kg, iv; format: ADME, organism-based, Macaca mulatta; conditions: in vivo
[11] = MRT in rhesus monkey at 1 mg/kg, iv; format: ADME, organism-based, Macaca mulatta; conditions: in vivo
[12] = Unbound fraction in rhesus monkey plasma at 1 mg/kg, iv; format: ADME, organism-based, Macaca mulatta
[13] = Inhibition of Metallo-beta-lactamase IMP-1 (unknown origin); set-up: species or system Bacteria
[14] = Inhibition of Metallo-beta-lactamase VIM-1 (unknown origin); set-up: species or system Bacteria
[15] = Inhibition of Metallo-beta-lactamase VIM-2 (unknown origin); set-up: species or system Bacteria
[16] = test system: Escherichia coli; assay: Antibacterial activity against NDM-1 expressing Escherichia coli CLB30016 assessed as inhibition of bacterial growth in presence of IMI by absorbance based assay; format: functional
[17] = test system: Serratia marcescens; assay: Antibacterial activity against IMP-1 expressing Serratia marcescens CL5741 assessed as inhibition of bacterial growth in presence of IMI by absorbance based assay; format: functional
[18] = test system: Klebsiella pneumoniae; assay: Antibacterial activity against VIM-1 expressing Klebsiella pneumoniae IHMA599644 assessed as inhibition of bacterial growth in presence of IMI by absorbance based assay; format: functional
[19] = test system: Pseudomonas aeruginosa; assay: Antibacterial activity against wildtype isogenic efflux/IMP-1 expressing Pseudomonas aeruginosa MB9798 assessed as inhibition of bacterial growth in presence of IMI by absorbance based assay; format: functional
[20] = Efflux ratio of MITC95 for antibacterial activity against wildtype isogenic efflux/IMP-1 expressing Pseudomonas aeruginosa MB9798 assessed as inhibition of bacterial growth in presence of IMI to MITC95 for antibacterial activity against mutant isogenic efflux/IMP-1 expressing Pseudomonas aeruginosa MB9799 assessed as inhibition of bacterial growth in presence of IMI; format: functional
[21] = Cmax in rat at 100 mg/kg, iv; format: ADME, organism-based; conditions: in vivo
[22] = Toxicity in cardiovascular rat model assessed as increase in histamine release in plasma at 100 mg/kg, iv; format: organism-based; conditions: in vivo
[23] = Toxicity in rat mast cells assessed as degranulation by measuring histamine release at 900 microM; format: cell-based; conditions: mast cell
[24] = Toxicity in cardiovascular rat model assessed as decrease in blood pressure at 30 mg/kg,iv for 20 mins and measured after 20 mins of iv infusion with 100 mg/kg; format: organism-based; conditions: in vivo, 40 min
[25] = Toxicity in cardiovascular rat model assessed as increase in histamine release in plasma at 30 mg/kg,iv for 20 mins and measured after 20 mins of iv infusion with 100 mg/kg; format: organism-based; conditions: in vivo, 40 min
[26] = Toxicity in rhesus monkey assessed as adverse effects at 1 mg/kg, iv measured after 24 hrs; format: organism-based, Macaca mulatta; conditions: in vivo
[27] = Cmax in rhesus monkey at 1 mg/kg, iv measured after 24 hrs; format: ADME, organism-based, Macaca mulatta; conditions: in vivo
[28] = test system: Staphylococcus aureus; assay: Antibacterial activity against wild type Staphylococcus aureus; format: functional, organism-based
[29] = test system: Escherichia coli; assay: Antibacterial activity against efflux mutant Escherichia coli; format: functional, organism-based
[30] = Hemolytic activity in sheep red blood cells assessed as hemolysis; format: toxicity, cell-based, Ovis aries, Erythrocyte
[31] = molecular target: Metallo-beta-lactamase type 2 (Bacteria, UniProt C7C422); assay: Inhibition of Metallo-beta-lactamase NDM-1 (unknown origin)
Chain of Metallo-beta-lactamase type 2 (C7C422 whole entry): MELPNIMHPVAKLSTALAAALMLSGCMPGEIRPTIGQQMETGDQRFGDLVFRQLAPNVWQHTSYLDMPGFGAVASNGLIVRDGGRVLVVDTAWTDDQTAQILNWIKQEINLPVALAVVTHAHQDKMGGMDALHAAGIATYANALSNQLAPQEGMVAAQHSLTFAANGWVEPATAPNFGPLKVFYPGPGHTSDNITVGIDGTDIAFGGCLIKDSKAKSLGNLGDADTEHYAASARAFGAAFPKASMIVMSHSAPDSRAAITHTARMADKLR

[32] = test system: Pseudomonas aeruginosa; assay: Antibacterial activity against mutant isogenic efflux/IMP-1 expressing Pseudomonas aeruginosa MB9799 assessed as inhibition of bacterial growth in presence of IMI by absorbance based assay; format: functional
[33] = Unbound fraction in rat plasma at 4 mg/kg, iv; format: ADME, organism-based
[34] = MRT in rat at 4 mg/kg, iv; format: ADME, organism-based; conditions: in vivo
[35] = Cmax in rat at 4 mg/kg, iv; format: ADME, organism-based; conditions: in vivo
[36] = Volume of distribution at steady state in rat at 4 mg/kg, iv; format: ADME, organism-based; conditions: in vivo, read-out: Vdss
[37] = Clearance in rat at 4 mg/kg, iv; format: ADME, organism-based; conditions: in vivo
[38] = AUC in rat at 4 mg/kg, iv; format: ADME, organism-based; conditions: in vivo
[39] = Toxicity in cardiovascular rat model assessed as increase in histamine release in plasma at 4 mg/kg, iv; format: organism-based; conditions: in vivo
[40] = Toxicity in rat mast cells assessed as degranulation by measuring histamine release at >=100 microM; format: cell-based; conditions: mast cell
[41] = Toxicity in rat assessed as adverse effect at 4 mg/kg, iv; format: organism-based; conditions: in vivo

Molecule `NCCS(=O)(=O)c1ccc(-c2cccc3sc(N)nc23)c(-c2nn[nH]n2)c1S(N)(=O)=O` has a Vd [1] of 0.46 L/kg, an AUC [2] of 1.15 µM·h and a clearance [3] of 32.1 mL/min/kg. It also gave a Cmax [4] of 5.8 µM, an MRT [5] of 13.8 min and a fraction unbound [6] of 0.37. For the same molecule, the AUC [7] was 10.2 µM·h, the clearance [8] was 3.6 mL/min/kg and the Vd [9] was 0.39 L/kg. It also gave a Cmax [10] of 18 µM, an MRT [11] of 109 min and a fraction unbound [12] of 0.23. For the same molecule, the IC50 [13] was 0.23 nM, the IC50 [14] was 0.31 nM and the IC50 [15] was 1 nM. It also gave an MITC95 [16] of 0.78 µM, an MITC95 [17] of 1.56 µM and an MITC95 [18] of 3.13 µM. The MITC95 [19] was 0.78 µM, the Ratio [20] was about 1 and the Cmax [21] was 569 µM. The Activity [22] was “Non-toxic”, the Activity [23] was “Non-toxic” and the Activity [24] was “Toxic”. For the same molecule, the Activity [25] was “Non-toxic”, the Activity [26] was “Non-toxic” and the Cmax [27] was 18 µM. For the same molecule, the IC50 [28] was over 200000 nM, the IC50 [29] was over 200000 nM and the IC50 [30] was over 200000 nM.
Work on `Cc1ccc(-c2ccc(S(=O)(=O)C3CNC3)c(S(N)(=O)=O)c2-c2nn[nH]n2)c2nc(N)[nH]c12` yielded an IC50 [31] of 0.04 nM, an IC50 [13] of 0.47 nM and an IC50 [14] of 0.24 nM. It also gave an MITC95 [16] of 1.56 µM, an MITC95 [17] of 0.78 µM and an MITC95 [18] of 1.56 µM. It also gave an MITC95 [19] of 0.78 µM, an MITC95 [32] of 0.78 µM and a Ratio [20] of 1.
For `NS(=O)(=O)c1c([S+]([O-])C2CCNCC2)ccc(-c2ccc(C3CCNCC3)cc2)c1-c1nnn[nH]1` (stereo not given), the IC50 [13] was 5.9 nM, the IC50 [14] was 1.18 nM and the IC50 [15] was 1090 nM. For the same molecule, the MITC95 [16] was 3.13 µM, the MITC95 [17] was 6.25 µM and the MITC95 [18] was 6.25 µM. For the same molecule, the MITC95 [19] was 3.1 µM, the MITC95 [32] was 1.56 µM and the Ratio [20] was 2.
For `NS(=O)(=O)c1c(S(=O)(=O)C2CCNCC2)ccc(-c2ccc(C3CCNCC3)cc2)c1-c1nnn[nH]1`, the Vd [1] was 0.18 L/kg, the AUC [2] was 8.4 µM·h and the clearance [3] was 3.8 mL/min/kg. For the same molecule, the Cmax [4] was 15.8 µM, the MRT [5] was 46.8 min and the fraction unbound [6] was 0.66. It also gave an IC50 [13] of 0.52 nM, an IC50 [14] of 0.31 nM and an IC50 [15] of 4.1 nM. For the same molecule, the MITC95 [16] was 1.56 µM, the MITC95 [17] was 3.13 µM and the MITC95 [18] was 3.13 µM. It also gave an MITC95 [19] of 0.78 µM, an MITC95 [32] of 0.78 µM and a Ratio [20] of 1.
`CS(=O)(=O)c1ccc(-c2ccc(C3CCNCC3)cc2)c(-c2nnn[nH]2)c1S(N)(=O)=O` gave an IC50 [13] of 0.1 nM, an IC50 [14] of 0.13 nM and an IC50 [15] of 2.6 nM. For the same molecule, the MITC95 [16] was 3.13 µM, the MITC95 [17] was 3.13 µM and the MITC95 [18] was 3.13 µM. The MITC95 [19] was 6.25 µM, the MITC95 [32] was 0.78 µM and the Ratio [20] was 8.
Work on `NS(=O)(=O)c1c(S(=O)(=O)C2CNC2)ccc(-c2ccc(C3CCNCC3)cc2)c1-c1nn[nH]n1` yielded a fraction unbound [33] of 0.55, an MRT [34] of 40.2 min and a Cmax [35] of 35.7 µM. For the same molecule, the Vd [36] was 0.34 L/kg, the clearance [37] was 8.5 mL/min/kg and the AUC [38] was 15.6 µM·h. The IC50 [13] was 0.21 nM, the IC50 [14] was 0.2 nM and the IC50 [15] was 2.8 nM. It also gave an MITC95 [16] of 0.78 µM, an MITC95 [17] of 1.56 µM and an MITC95 [18] of 1.56 µM. The MITC95 [19] was 0.78 µM, the MITC95 [32] was 0.78 µM and the Ratio [20] was 1. The Activity [39] was “Non-toxic”, the Activity [40] was “Toxic” and the Activity [41] was “Non-toxic”.
Molecule `Nc1nc2c(-c3ccc(S(=O)(=O)C4CCNCC4)c(S(N)(=O)=O)c3-c3nn[nH]n3)cccc2s1` has an IC50 [31] of 0.12 nM, an IC50 [13] of 0.46 nM and an IC50 [14] of 0.26 nM. It also gave an IC50 [15] of 0.4 nM, an MITC95 [16] of 3.13 µM and an MITC95 [17] of 3.13 µM. For the same molecule, the MITC95 [18] was 6.25 µM, the MITC95 [19] was 1.56 µM and the MITC95 [32] was 1.56 µM. For the same molecule, the Ratio [20] was 1.
